Reference: patent publication US20250376659A1, “DERIVATION OF SOMATOTROPHS FROM STEM CELLS AND USES THEREOF” (MEMORIAL SLOAN-KETTERING CANCER CENTER, priority 2017, published 2025)
Entries after “also recorded” stand apart in the source; their conditions may differ. No end group written: not given here.

Key:
Human ES or iPS cells = assay: Marker gene expression during step-wise differentiation of human pluripotent stem cells to somatotrophs; format: cell-based; conditions: for GH1 expression: FIG. 6, 7A, 7B, 16; for GH1 expression / PIT1 expression: compared with the control group; for PIT1 expression: FIG. 4, FIG. 5, FIG. 16
Method: Human ES or iPS cells were expanded in E8 media on matrigel.
On day 0, cells were changed to E6 media where BMP4 (5 ng/ml) and SB43152 (10 μM) were added, with daily medium and factors change.
On day 3, BMP4 was removed and the following factors added: FGF8 (100 ng/ml); FGF10 (50 ng/ml); FGF18 (50 ng/ml); Sonic hedgehog (SHH) (100 ng/ml) or SAG (Smoothened Agonist) (100 nM); LDN193189 (250 nM). Media and factors were changed every other day.
Media and factors are changed every other day.
(§1) On day 15, the following factors were used: Retinoic acid (1 μM); Thyroid hormone T3 (10 nM); Dexamethasone (1 μM); cyclic AMP (100 μg/ml); DPN (0.1 nM); Growth Hormone Releasing Hormone (GHRH) (1 μM). Media and factors were changed every other day.
On day 29, the cells entered the maturation phase and could be maintained in the same factors for a variable period ranging from 1-4 weeks. […] They could be subjected to FACS sorting for GHRH in order to obtain a pure cell population of somatotrophs. Cells remained on matrigel for the duration of the protocol.
In order to derive GH cells, the strategy was to first differentiate human pluripotent stem cells to pre-placodal ectoderm and anterior pituitary progenitors. The cells were further differentiated to PROP1 lineage, and then to PIT1 lineage. The cells were then terminally differentiated to GH cells. The step-wise protocol to differentiate pluripotent stem cells into growth hormone secreting cells involved promoting Prop1 expression in anterior pituitary progenitors, activating POU1F1 (PIT1), directing cell differentiation to growth hormone expressing cells. The growth hormone expressing cells were also further matured via prolonged incubation. The key markers to monitor the process of differentiation comprised Prop1, POU1F1 (PIT1), GH and GHRHR.
For example, the first step was to induce non-neural ectoderm by BMP4 and inhibitor of TGF-β/Activin/NODAL pathway (e.g., SB431542). Then the cells were subjected to inhibitor of TGF-β/Activin/NODAL pathway (e.g., SB431542), FGF8/10/18, SHH agonist (e.g., SHH), and a SMAD inhibitor (e.g., LDN 193189) to induce anterior pituitary progenitors, which were characterized by PITX1/2, LHX3/4 and PROP1 expression.
For selective differentiation to somatotrophs, retinoic acid were used to suppress POMC expressed by corticotrophs and to promote GH1 expression which is expressed by somatotrophs. In addition, the corticosteroid (e.g., Dexamethasone) and thyroid hormone (e.g., T3) were added to the medium to inhibit PRL (expressed by lactotroph) and TSH (expressed by thyrotroph), while promoting GH1 expression.

somatotrophs = assay: GHRH stimulation of stem-cell-derived GH cell population; format: cell-based, human; conditions: cell population after growth hormone induction, FIG. 8 lower right panel
Method: as §1
On day 29, the cells entered the maturation phase and could be maintained in the same factors for a variable period ranging from 1-4 weeks. Cells at this stage expressed GHRH receptors (GHRHR). They could be subjected to FACS sorting for GHRH in order to obtain a pure cell population of somatotrophs. Cells remained on matrigel for the duration of the protocol.
After this step, the majority population in culture were somatotrophs which expressed the somatotroph marker GH1 and secreted growth hormone in the supernatant. The phenotype of the population is shown FIG. 8. The cell population expressed high amount of GH and GHRHR, and low amount of TSH, PRL and LH. GH expression was further increased upon GHRH stimulation (FIG. 8, lower right panel).

rodent GSK3β homologs = conditions: cited from earlier work

GHRH: Growth Hormone Releasing Hormone, GHRH signaling pathway agonist (YADAIFTNSYRKVLGQLSARKLLQDIMSRQQGESNQERGARARL; ends and bridges not checked; UniProt P01286 32-75, looked up)
GH1 expression (Human ES or iPS cells): significantly increased; also recorded: further promoted | GH expression upon GHRH stimulation (somatotrophs): increased

Ghrelin: Ghrelin signaling pathway agonist (GSSFLSPEHQRVQQRKESKKPPAKLQPR; ends and bridges not checked; UniProt Q9UBU3 24-51, looked up)
GH1 expression (Human ES or iPS cells): promoting

N[C@@H](Cc1cc(I)c(Oc2ccc(O)c(I)c2)c(I)c1)C(=O)O [T3, reference compound]
TSH-β expression (Human ES or iPS cells; FIG. 7C, p-value<0.01 compared with the control groups): significantly reduced

Cc1c[nH]c(-c2cnc(NCCNc3ccc(C#N)cn3)nc2-c2ccc(Cl)cc2Cl)n1 [CHIR99021, 6-(2-(4-(2,4-dichlorophenyl)-5-(4-methyl-1H-imidazol-2-yl)pyrimidin-2-ylamino)ethylamino) nicotinonitrile, reference compound]
PIT1 expression (Human ES or iPS cells): induce | IC50 values against rodent GSK3β homologs (rodent GSK3β homologs): nanomolar

C[C@]12C[C@H](O)[C@H]3[C@@H](CCC4=CC(=O)CC[C@@]43C)[C@@H]1CC[C@@H]2C(=O)CO [corticosterone, reference compound]
PRL expression (Human ES or iPS cells; FIG. 7D, p-value<0.01 compared with the control groups): significantly reduced

N#CC(Cc1ccc(O)cc1)c1ccc(O)cc1 (stereo not drawn) [DPN, 2,3-bis(4-hydroxyphenyl) propionitrile, reference compound]
GH1 expression (Human ES or iPS cells): further promoted

IL 6: interleukin
PIT1 expression (Human ES or iPS cells): increased | GH1 expression (Human ES or iPS cells): increased

B1: FGF8: activator of FGF signaling, dorsalizing agent (protein, UniProt P55075 23-233, looked up)
Fibroblast growth factor 8: QEGPGRGPALGRELASLFRAGREPQGVSQQHVREQSLVTDQLSRRLIRTYQLYSRTSGKHVQVLANKRINAMAEDGDPFAKLIVETDTFGSRVRVRGAETGLYICMNKKGKLIAKSNGKGKDCVFTEIVLENNYTALQNAKYEGWYMAFTRKGRPRKGSKTRQHQREVHFMKRLPRGHHTTEQSLRFEFLNYPPFTRSLRGSQRTWAPEPR
PROP1 expression (Human ES or iPS cells; FIG. 3, FIG. 5): maintained | PIT1 expression (Human ES or iPS cells): downregulated | POMC expression (Human ES or iPS cells; FIG. 5): upregulated

B2: IL10: interleukin (protein, UniProt P22301 19-178, looked up)
Interleukin-10: SPGQGTQSENSCTHFPGNLPNMLRDLRDAFSRVKTFFQMKDQLDNLLLKESLLEDFKGYLGCQALSEMIQFYLEEVMPQAENQDPDIKAHVNSLGENLKTLRLRLRRCHRFLPCENKSKAVEQVKNAFNKLQEKGIYKAMSEFDIFINYIEAYMTMKIRN
PIT1 expression (Human ES or iPS cells): increased | GH1 expression (Human ES or iPS cells): increased
